One assay has as its system HeLa cells. In words: Assay 1 cell proliferation measurement (CTG, 72 h), HeLa. The following applies: Homo sapiens, HeLa; Assay 1, 72 h, Cell Titer Glo; read-out: HeLa IC50 [nM] (Cervical cancer). Type of assay: cell-based, human. In a few lines: (§1)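 Cells were plated, grown overnight at 37 °C, then treated 72 h with a 10-step 2.5-fold dilution series from 100 nM maximum final (0.3% DMSO vehicle). Viability was read by CellTiter-Glo luminescence. IC50 from a 4-parameter fit, normalised to a 0 h plate (maximum inhibition) and DMSO control (minimum inhibition).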
A general note: Cellular ATP, detected with luciferase, serves as a proxy for viable cell number.

The next assay concerns the target human full length PDE3B (Homo sapiens (Human), UniProt Q13370). Kind of assay: Assay 5 PDE3B enzyme inhibition (3H-cAMP SPA). In kind it is biochemical. The settings on record: Sf9 cell extract. In a few lines: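 Hydrolysis of tritiated cAMP by Sf9-expressed full-length human PDE3B proceeded 60 min at room temperature in Tris buffer pH 7.5 containing Mg2+, EDTA and BSA, with enzyme dilution keeping substrate consumption below 70%. IC50 derived from percent activity versus log compound concentration.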

The next assay deals with human full length PDE3A (Homo sapiens (Human), UniProt Q14432). In words: Assay 4 PDE3A enzyme inhibition (3H-cAMP SPA). Type of assay: biochemical. The following applies: Sf9 cell extract. In a few lines: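 In this SPA format, the 60-min room-temperature reaction used 0.025 μCi [8-3H]cAMP and diluted full-length PDE3A from Sf9 cells. Percentage activity was plotted against log compound concentration to derive IC50.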

For another assay, the system named is SK-MEL-3 cells. Kind of assay: Assay 1 cell proliferation measurement (CTG, 72 h), SK-MEL-3. The settings on record: Homo sapiens, SK-MEL3; Assay 1, 72 h, Cell Titer Glo; read-out: SK-MEL-3 IC50 [nM] (melanoma). In kind it is cell-based, human. In a few lines:
as §1

Counter-ions that a name gives are not always drawn.

human full length PDE3A, sequence (Q14432 whole entry): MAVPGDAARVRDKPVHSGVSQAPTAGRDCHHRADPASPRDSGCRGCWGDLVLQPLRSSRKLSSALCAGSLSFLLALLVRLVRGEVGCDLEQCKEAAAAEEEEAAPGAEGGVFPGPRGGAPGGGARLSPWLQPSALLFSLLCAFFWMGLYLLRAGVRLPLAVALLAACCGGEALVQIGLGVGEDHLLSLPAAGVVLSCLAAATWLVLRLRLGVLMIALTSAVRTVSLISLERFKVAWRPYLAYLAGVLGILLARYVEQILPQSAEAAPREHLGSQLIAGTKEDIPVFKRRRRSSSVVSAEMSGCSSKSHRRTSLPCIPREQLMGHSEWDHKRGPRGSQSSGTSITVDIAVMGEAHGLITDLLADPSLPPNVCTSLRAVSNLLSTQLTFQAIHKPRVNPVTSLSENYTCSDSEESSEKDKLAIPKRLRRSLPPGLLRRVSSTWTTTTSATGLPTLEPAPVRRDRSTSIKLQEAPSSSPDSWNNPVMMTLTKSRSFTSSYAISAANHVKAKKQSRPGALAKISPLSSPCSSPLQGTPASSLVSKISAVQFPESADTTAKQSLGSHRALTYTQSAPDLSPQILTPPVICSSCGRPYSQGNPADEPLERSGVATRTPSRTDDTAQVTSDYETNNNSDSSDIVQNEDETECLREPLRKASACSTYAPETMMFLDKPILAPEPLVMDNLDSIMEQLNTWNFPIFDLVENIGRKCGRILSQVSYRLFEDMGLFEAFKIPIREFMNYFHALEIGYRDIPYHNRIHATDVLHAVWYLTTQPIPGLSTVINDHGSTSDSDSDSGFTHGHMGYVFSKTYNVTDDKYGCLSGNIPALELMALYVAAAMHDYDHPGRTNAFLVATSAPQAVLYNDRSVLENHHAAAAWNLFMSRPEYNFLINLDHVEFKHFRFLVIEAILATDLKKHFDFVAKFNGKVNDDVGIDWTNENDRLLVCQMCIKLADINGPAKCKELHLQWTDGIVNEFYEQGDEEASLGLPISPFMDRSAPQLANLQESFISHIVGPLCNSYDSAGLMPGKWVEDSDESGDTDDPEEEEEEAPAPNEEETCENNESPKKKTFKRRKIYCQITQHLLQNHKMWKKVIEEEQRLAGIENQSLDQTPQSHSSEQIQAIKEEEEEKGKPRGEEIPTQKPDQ
human full length PDE3B, sequence (Q13370 whole entry): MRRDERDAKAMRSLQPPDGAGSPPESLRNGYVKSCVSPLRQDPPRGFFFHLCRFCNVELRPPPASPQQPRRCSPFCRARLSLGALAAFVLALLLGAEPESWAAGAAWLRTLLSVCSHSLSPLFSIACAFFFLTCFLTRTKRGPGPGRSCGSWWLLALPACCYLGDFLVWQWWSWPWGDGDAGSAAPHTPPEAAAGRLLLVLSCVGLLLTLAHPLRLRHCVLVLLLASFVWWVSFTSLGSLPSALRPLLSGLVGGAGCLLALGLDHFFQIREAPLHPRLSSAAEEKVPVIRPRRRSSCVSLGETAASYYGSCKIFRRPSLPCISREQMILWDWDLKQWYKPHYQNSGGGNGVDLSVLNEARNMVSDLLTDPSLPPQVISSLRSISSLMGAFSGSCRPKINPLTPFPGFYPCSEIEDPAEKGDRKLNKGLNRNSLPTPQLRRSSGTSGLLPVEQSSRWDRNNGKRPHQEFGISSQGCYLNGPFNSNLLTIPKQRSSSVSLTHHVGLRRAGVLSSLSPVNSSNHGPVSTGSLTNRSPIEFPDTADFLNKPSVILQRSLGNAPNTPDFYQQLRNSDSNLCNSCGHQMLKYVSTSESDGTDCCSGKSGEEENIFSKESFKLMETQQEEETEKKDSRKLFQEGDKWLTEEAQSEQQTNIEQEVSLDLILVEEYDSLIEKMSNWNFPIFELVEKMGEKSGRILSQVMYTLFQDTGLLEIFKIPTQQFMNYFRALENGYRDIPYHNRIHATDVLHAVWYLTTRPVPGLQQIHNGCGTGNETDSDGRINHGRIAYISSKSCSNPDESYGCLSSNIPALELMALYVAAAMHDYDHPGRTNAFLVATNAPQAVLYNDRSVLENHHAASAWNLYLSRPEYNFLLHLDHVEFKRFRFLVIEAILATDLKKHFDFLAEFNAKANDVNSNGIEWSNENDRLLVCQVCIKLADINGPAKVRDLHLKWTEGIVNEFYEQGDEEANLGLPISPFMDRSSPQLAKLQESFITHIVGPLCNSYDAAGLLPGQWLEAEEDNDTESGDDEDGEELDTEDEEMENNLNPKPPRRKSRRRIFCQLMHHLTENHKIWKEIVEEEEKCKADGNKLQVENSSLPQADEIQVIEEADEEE

Broadly, the IC50 is the concentration that inhibits the measured activity by half. Consider `O=C1NN=C(c2ccc(NC[C@@H]3CCCO3)c(C(F)(F)F)c2)CO1` [Example 259, 5-[4-({[(2S)-Oxolan-2-yl]methyl}amino)-3-(trifluoromethyl)phenyl]-3,6-dihydro-2H-1,3,4-oxadiazin-2-one], for which the IC50 worked out at 1 nM in the assay on HeLa cells, 110 nM against human full length PDE3B, 34 nM against human full length PDE3A and 3 nM with SK-MEL-3 cells.
As to `O=C1NN=C(c2ccc(N[C@H]3CCC[C@H]3O)c(C(F)(F)F)c2)CO1` [Example 261, 5-[4-{[(1S,2R)-2-Hydroxycyclopentyl]amino}-3-(trifluoromethyl)phenyl]-3,6-dihydro-2H-1,3,4-oxadiazin-2-one], the IC50 is 38 nM in the assay on HeLa cells, 600 nM at human full length PDE3B, 550 nM against human full length PDE3A and above 100 nM with SK-MEL-3 cells.
For `O=C1NN=C(c2ccc(NC3COC3)c(C(F)(F)F)c2)CO1` [Example 262, 5-{4-[(Oxetan-3-yl)amino]-3-(trifluoromethyl)phenyl}-3,6-dihydro-2H-1,3,4-oxadiazin-2-one], in that order: 2 nM, 20 nM, 18 nM and 5 nM.
For `CC(C)n1cc(-c2ccc(C3=NNC(=O)OC3)cc2C(F)F)cn1` [Example 263, 5-{3-(Difluoromethyl)-4-[1-(propan-2-yl)-1H-pyrazol-4-yl]phenyl}-3,6-dihydro-2H-1,3,4-oxadiazin-2-one], in that order: 9 nM, 46 nM, 50 nM and 32 nM.
For `O=C1NN=C(c2cc(F)c(N3CCOCC3)c(C(F)(F)F)c2)CO1` [Example 264, 5-[3-Fluoro-4-(morpholin-4-yl)-5-(trifluoromethyl)phenyl]-3,6-dihydro-2H-1,3,4-oxadiazin-2-one], the IC50 is 2 nM with HeLa cells, 112 nM against human full length PDE3B, 75 nM against human full length PDE3A and 2 nM in the assay on SK-MEL-3 cells.
For the compound `O=C1NN=C(c2ccc([C@H]3CC[C@H](O)CC3)c(C(F)(F)F)c2)CO1` [Example 272, (trans)-5-{4-[4-hydroxycyclohexyl]-3-(trifluoromethyl)phenyl}-3,6-dihydro-2H-1,3,4-oxadiazin-2-one], the IC50 in the assay on HeLa cells stood at 1 nM; against human full length PDE3B, 10 nM; against human full length PDE3A, 19 nM; in the assay with SK-MEL-3 cells, 1 nM.
On to `O=C1NN=C(c2ccc([C@H]3CC[C@@H](O)CC3)c(C(F)(F)F)c2)CO1` [Example 273, (cis)-5-{4-[4-Hydroxycyclohexyl]-3-(trifluoromethyl)phenyl}-3,6-dihydro-2H-1,3,4-oxadiazin-2-one], for which the IC50 with HeLa cells is 1 nM; on human full length PDE3B, 53 nM; at human full length PDE3A, 44 nM; in the assay on SK-MEL-3 cells it was 1 nM.
In the case of `NCCNc1ccc(C2=NNC(=O)OC2)cc1C(F)(F)F` [Example 274, 5-{4-[(2-Aminoethyl)amino]-3-(trifluoromethyl)phenyl}-3,6-dihydro-2H-1,3,4-oxadiazin-2-one-salt with hydrochloric acid], the IC50 was 19 nM in the assay on HeLa cells, 400 nM against human full length PDE3B, 300 nM against human full length PDE3A and 31 nM in the assay on SK-MEL-3 cells.
For `CC(C)(O)c1ccc(C2=NNC(=O)OC2)cc1C(F)(F)F` [Example 278, 5-[4-(2-Hydroxypropan-2-yl)-3-(trifluoromethyl)phenyl]-3,6-dihydro-2H-1,3,4-oxadiazin-2-one], in that order: 58 nM, above 1000 nM, above 1000 nM and 80 nM.
On to `CC(C)(O)CCNc1ccc(C2=NNC(=O)OC2)cc1C(F)(F)F` [Example 319, 5-{4-[(3-hydroxy-3-methylbutyl)amino]-3-(trifluoromethyl)phenyl}-3,6-dihydro-2H-1,3,4-oxadiazin-2-one], for which the IC50 in the assay on HeLa cells is 61 nM; against human full length PDE3B, 180 nM; at human full length PDE3A, 70 nM; with SK-MEL-3 cells it was above 100 nM.
On to `CC(C)(N)CNc1ccc(C2=NNC(=O)OC2)cc1C(F)(F)F` [Example 321, 5-{4-[(2-amino-2-methylpropyl)amino]-3-(trifluoromethyl)phenyl}-3,6-dihydro-2H-1,3,4-oxadiazin-2-one], for which the IC50 with HeLa cells is above 100 nM; against human full length PDE3B it was 500 nM; on human full length PDE3A, 290 nM; in the assay on SK-MEL-3 cells it was 54 nM.
For `CN(C)CCNc1ccc(C2=NNC(=O)OC2)cc1C(F)(F)F` [Example 323, 5-[4-{[2-(dimethylamino)ethyl]amino}-3-(trifluoromethyl)phenyl]-3,6-dihydro-2H-1,3,4-oxadiazin-2-one], in that order: above 84 nM, above 910 nM, above 280 nM and above 100 nM.
Take `CN(C)CCN(C)c1ccc(C2=NNC(=O)OC2)cc1C(F)(F)F` [Example 324, 5-[4-{[2-(dimethylamino)ethyl](methyl)amino}-3-(trifluoromethyl)phenyl]-3,6-dihydro-2H-1,3,4-oxadiazin-2-one]: the IC50 was above 100 nM with HeLa cells, above 1000 nM at human full length PDE3B, above 1000 nM at human full length PDE3A and above 100 nM with SK-MEL-3 cells.
`Cc1nc2cc(-c3ccc(C4=NNC(=O)OC4)cc3C(F)(F)F)ccc2s1` [Example 325, 5-[4-(2-methyl-1,3-benzothiazol-5-yl)-3-(trifluoromethyl)phenyl]-3,6-dihydro-2H-1,3,4-oxadiazin-2-one]: the IC50 with HeLa cells was above 100 nM; at human full length PDE3B, 150 nM; on human full length PDE3A it was 56 nM; in the assay on SK-MEL-3 cells it was above 100 nM.
With `Cc1nc2cc(-c3ccc(C4=NNC(=O)OC4)cc3C(F)(F)F)ccc2[nH]1` [Example 326, 5-[4-(2-methyl-1H-benzimidazol-5-yl)-3-(trifluoromethyl)phenyl]-3,6-dihydro-2H-1,3,4-oxadiazin-2-one], the IC50 with HeLa cells was above 100 nM; against human full length PDE3B, 30 nM; at human full length PDE3A, 17 nM; in the assay on SK-MEL-3 cells it was above 100 nM.
As for `Cc1n[nH]c2cc(-c3ccc(C4=NNC(=O)OC4)cc3C(F)(F)F)ccc12` [Example 327, 5-[4-(3-methyl-1H-indazol-6-yl)-3-(trifluoromethyl)phenyl]-3,6-dihydro-2H-1,3,4-oxadiazin-2-one], the IC50 is above 100 nM in the assay on HeLa cells, 16 nM against human full length PDE3B, 11 nM against human full length PDE3A and above 100 nM in the assay on SK-MEL-3 cells.
With `O=C1NN=C(c2ccc(C3=CCNCC3)c(C(F)(F)F)c2)CO1` [Example 328, 5-[4-(1,2,3,6-tetrahydropyridin-4-yl)-3-(trifluoromethyl)phenyl]-3,6-dihydro-2H-1,3,4-oxadiazin-2-one], the IC50 with HeLa cells was 47 nM; against human full length PDE3B it was 91 nM; at human full length PDE3A, 74 nM; in the assay on SK-MEL-3 cells it was above 100 nM.
For `O=C1NN=C(c2ccc(C3=CCOC3)c(C(F)F)c2)CO1` [Example 329, 5-[3-(difluoromethyl)-4-(2,5-dihydrofuran-3-yl)phenyl]-3,6-dihydro-2H-1,3,4-oxadiazin-2-one], in that order: 41 nM, 93 nM, 100 nM and 64 nM.
For `O=C1NN=C(c2ccc(Cl)c(C(F)(F)F)c2)CO1` [Intermediate 64, 5-[4-Chloro-3-(trifluoromethyl)phenyl]-3,6-dihydro-2H-1,3,4-oxadiazin-2-one], in that order: 29 nM, 490 nM, 610 nM and 53 nM.
Take `O=C1NN=C(c2ccc(F)c(C(F)(F)F)c2)CO1` [Intermediate 66, 5-[4-Fluoro-3-(trifluoromethyl)phenyl]-3,6-dihydro-2H-1,3,4-oxadiazin-2-one]: the IC50 is 56 nM in the assay with HeLa cells, above 1000 nM at human full length PDE3B, above 1000 nM on human full length PDE3A and above 100 nM in the assay with SK-MEL-3 cells.
Turning to `CC(C)(C)OC(=O)NCCNc1ccc(C2=NNC(=O)OC2)cc1C(F)(F)F` [Intermediate 67, tert-Butyl {2-[4-(2-oxo-3,6-dihydro-2H-1,3,4-oxadiazin-5-yl)-2-(trifluoromethyl)anilino]ethyl} carbamate], the IC50 in the assay with HeLa cells was above 100 nM; on human full length PDE3B, 7 nM; on human full length PDE3A it was 6 nM; in the assay with SK-MEL-3 cells, above 100 nM.
As to `O=C1NN=C(c2ccc(Cl)c(OC(F)(F)F)c2)CO1` [Intermediate 73, 5-[4-Chloro-3-(trifluoromethoxy)phenyl]-3,6-dihydro-2H-1,3,4-oxadiazin-2-one], the IC50 in the assay with HeLa cells was 58 nM; against human full length PDE3B it was above 1000 nM; against human full length PDE3A it was 720 nM; in the assay on SK-MEL-3 cells, above 100 nM.
For `C[C@@H]1OC(=O)NN=C1c1ccc(Cl)c(C(F)(F)F)c1` [Intermediate 74, (6S)-5-[4-chloro-3-(trifluoromethyl)phenyl]-6-methyl-3,6-dihydro-2H-1,3,4-oxadiazin-2-one], in that order: 6 nM, 100 nM, 34 nM and 11 nM.

The values above are taken from patent US11427553B2, “Dihydrooxadiazinones” (Bayer Aktiengesellschaft, priority 2017, dated 2022).
